Source: patent publication US20260008775A1, “AZOLE MODULATORS OF CHOLESTEROL BIOSYNTHESIS AND THEIR USE FOR PROMOTING REMYELINATION” (GENENTECH, INC., priority 2022, published 2026)

What was measured:
[1] = test system: zymostenol accumulation (EBP) in EpiSC-derived OPCs; test: GC/MS-based sterol profiling, zymostenol accumulation in EpiSC-derived OPCs; type: cell-based, mouse; settings: Mus musculus, 24 h, EpiSC-derived OPCs, 24 hr, 8 doses from 0.15 nM to 333 nM; read-out: Mouse Zymostenol GCMS EC50
Method in brief: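 Mouse epiblast stem cell-derived OPCs plated at 100,000 cells/well in growth-factor-free N2B27 and treated 24 h. Sterols extracted by modified Folch wash, silylated with BSTFA, and quantified by electron-impact GC/MS against cholesterol-d7 (zymostenol ion 458). Zymostenol normalised to 24 h 100 nM positive-control reference.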

[2] = test system: EpiSC-derived OPCs; test: In vitro phenotypic screening of OPCs, MBP high-content imaging (percentage of oligodendrocytes); type: cell-based, mouse; settings: Mus musculus, 72 h, 3 days, MBP stain, dose-response 0.5 nM to 1000 nM; read-out: OPC EC50
Method in brief: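 Mouse epiblast stem cell-derived OPCs were plated without growth factors and given 8-point doses (1000 nM to 0.5 nM, 0.1% DMSO final) for 3 days at 37 °C. MBP/DAPI immunostaining and high-content imaging gave the percentage of oligodendrocytes. EC50 came from a Hill-equation fit.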

[3] = target: human emopamil binding protein and human 7-dehydrocholesterol reductase (hEBP-DHCR7) (Homo sapiens (Human), UniProt Q15125); test: hEBP-DHCR7 radioligand binding assay (filter binding, membranes of co-expressing HEK293 cells); settings: competition with [3H] radioligand, 8 doses 0.06 to 5000 nM, Ki calculated from IC50
Sequence of human emopamil binding protein and human 7-dehydrocholesterol reductase (hEBP-DHCR7) (Q15125 whole entry): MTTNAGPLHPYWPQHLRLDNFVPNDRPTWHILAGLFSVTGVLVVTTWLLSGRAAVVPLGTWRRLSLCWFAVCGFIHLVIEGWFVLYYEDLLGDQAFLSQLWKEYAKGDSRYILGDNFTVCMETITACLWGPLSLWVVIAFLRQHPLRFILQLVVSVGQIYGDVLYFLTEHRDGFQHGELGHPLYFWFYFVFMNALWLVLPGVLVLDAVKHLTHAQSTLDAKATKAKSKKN
Method in brief: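 Membranes from HEK293 cells transiently co-expressing hEBP and DHCR7 (10 μg/well) were incubated for 3 h at 22 °C with tritiated spiro-sulfone radioligand (added at 25 nM) and compound at 1 μM or 0.06–5000 nM. Filtration and scintillation counting followed. Inhibition was normalised to 5 μM unlabelled ligand and DMSO, and Ki was derived as IC50/(1+[L]/Kd).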

Row | SMILES | EC50 [1] | EC50 [2] | Ki [3]
1 | CC(C)n1nc(-c2ccc(C(F)(F)F)cc2)cc1[C@H]1[C@@H]2C[C@H](N3CCOCC3)C[C@@H]21 [Compound 173, 4-((1R,3r,5S,6r)-6-(1-Isopropyl-3-(4-(trifluoromethyl)phenyl)-1H-pyrazol-5-yl)bicyclo[3.1.0]hexan-3-yl)morpholine] | 4 nM | 22.3 nM | 7.81 nM
2 | CC(C)n1nc(-c2cccc(C(F)(F)F)c2)cc1[C@H]1[C@@H]2C[C@@H](N3CCCOCC3)C[C@@H]21 [Compound 175*, 4-((1R,3r,5S,6r)-6-(1-Isopropyl-3-(3-(trifluoromethyl)phenyl)-1H-pyrazol-5-yl)bicyclo[3.1.0]hexan-3-yl)-1,4-oxazepane] | 5.46 nM | 11.3 nM | 14.2 nM
3 | CC(C)n1nc(-c2cccc(C(F)(F)F)c2)cc1[C@H]1[C@@H]2C[C@H](N3CCCOCC3)C[C@@H]21 [Compound 176*, 4-((1R,3s,5S,6r)-6-(1-isopropyl-3-(3-(trifluoromethyl)phenyl)-1H-pyrazol-5-yl)bicyclo[3.1.0]hexan-3-yl)-1,4-oxazepane] | 1.71 nM | 1.82 nM | 8.64 nM
4 | CC(C)n1nc(-c2cncc(Cl)c2)cc1[C@H]1[C@@H]2C[C@@H](N3CCCOCC3)C[C@@H]21 [Compound 177*, 4-((1R,3s,5S,6r)-6-(3-(5-Chloropyridin-3-yl)-1-isopropyl-1H-pyrazol-5-yl)bicyclo[3.1.0]hexan-3-yl)-1,4-oxazepane] | 4.16 nM | 9.82 nM | 15.5 nM
5 | CC(C)n1nc(-c2cncc(Cl)c2)cc1[C@H]1[C@@H]2C[C@H](N3CCCOCC3)C[C@@H]21 [Compound 178*, 4-((1R,3r,5S,6r)-6-(3-(5-chloropyridin-3-yl)-1-isopropyl-1H-pyrazol-5-yl)bicyclo[3.1.0]hexan-3-yl)-1,4-oxazepane] | 65.6 nM | 555 nM | 35.8 nM
6 | CC(C)n1nc(-c2ccc(C#N)cc2)cc1[C@H]1[C@@H]2C[C@H](N3CCCOCC3)C[C@@H]21 [Compound 179*, 4-(5-((1R,3r,5S,6r)-3-(1,4-Oxazepan-4-yl)bicyclo[3.1.0]hexan-6-yl)-1-isopropyl-1H-pyrazol-3-yl)benzonitrile] | 0.952 nM | 26.4 nM | 10.9 nM
7 | CC(C)n1nc(-c2ccc(C#N)cc2)cc1[C@H]1[C@@H]2C[C@@H](N3CCCOCC3)C[C@@H]21 [Compound 180*, 4-(5-((1R,3s,5S,6r)-3-(1,4-oxazepan-4-yl)bicyclo[3.1.0]hexan-6-yl)-1-isopropyl-1H-pyrazol-3-yl)benzonitrile] | 24.5 nM | 124 nM | 30.6 nM
8 | CC(C)n1nc(-c2ccc(C(F)(F)F)cc2)cc1[C@H]1[C@@H]2C[C@H](N3CCCOCC3)C[C@@H]21 [Compound 181*, 4-((1R,3r,5S,6r)-6-(1-Isopropyl-3-(4-(trifluoromethyl)phenyl)-1H-pyrazol-5-yl)bicyclo[3.1.0]hexan-3-yl)-1,4-oxazepane] | 7 nM | 12.4 nM | 10.1 nM
9 | CC(C)n1nc(-c2ccc(C(F)(F)F)cc2)cc1[C@H]1[C@@H]2C[C@@H](N3CCCOCC3)C[C@@H]21 [Compound 182*, 4-((1R,3s,5S,6r)-6-(1-isopropyl-3-(4-(trifluoromethyl)phenyl)-1H-pyrazol-5-yl)bicyclo[3.1.0]hexan-3-yl)-1,4-oxazepane] | 18.5 nM | 36.9 nM | 15.8 nM
10 | CC(C)n1nc(-c2ccc(F)cc2)cc1[C@H]1[C@@H]2C[C@H](N3CCCOCC3)C[C@@H]21 [Compound 183*, 4-((1R,3r,5S,6r)-6-(3-(4-Fluorophenyl)-1-isopropyl-1H-pyrazol-5-yl)bicyclo[3.1.0]hexan-3-yl)-1,4-oxazepane] | 8.6 nM | 13.1 nM | 10.6 nM
11 | CC(C)n1nc(-c2ccc(F)cc2)cc1[C@H]1[C@@H]2C[C@@H](N3CCCOCC3)C[C@@H]21 [Compound 184*, 4-((1R,3s,5S,6r)-6-(3-(4-fluorophenyl)-1-isopropyl-1H-pyrazol-5-yl)bicyclo[3.1.0]hexan-3-yl)-1,4-oxazepane] | 27.1 nM | 55.9 nM | 21.3 nM
12 | CC(C)n1nc(-c2ccc(OC(F)(F)F)cc2)cc1[C@H]1[C@@H]2C[C@H](N3CCCOCC3)C[C@@H]21 [Compound 185*, 4-((1R,3r,5S,6r)-6-(1-Isopropyl-3-(4-(trifluoromethoxy)phenyl)-1H-pyrazol-5-yl)bicyclo[3.1.0]hexan-3-yl)-1,4-oxazepane] | 7.66 nM | 11.3 nM | 12 nM
13 | CC(C)n1nc(-c2ccc(OC(F)(F)F)cc2)cc1[C@H]1[C@@H]2C[C@@H](N3CCCOCC3)C[C@@H]21 [Compound 186*, 4-((1R,3s,5S,6r)-6-(1-isopropyl-3-(4-(trifluoromethoxy)phenyl)-1H-pyrazol-5-yl)bicyclo[3.1.0]hexan-3-yl)-1,4-oxazepane] | 56.7 nM | 431 nM | 20.6 nM
14 | CC(C)n1nc(-c2cncc(F)c2)cc1[C@H]1[C@@H]2C[C@H](N3CCCOCC3)C[C@@H]21 [Compound 187*, 4-((1R,3r,5S,6r)-6-(3-(5-Fluoropyridin-3-yl)-1-isopropyl-1H-pyrazol-5-yl)bicyclo[3.1.0]hexan-3-yl)-1,4-oxazepane] | 7.75 nM | 37.3 nM | 20.3 nM
15 | CC(C)n1nc(-c2cncc(F)c2)cc1[C@H]1[C@@H]2C[C@@H](N3CCCOCC3)C[C@@H]21 [Compound 188*, 4-((1R,3s,5S,6r)-6-(3-(5-fluoropyridin-3-yl)-1-isopropyl-1H-pyrazol-5-yl)bicyclo[3.1.0]hexan-3-yl)-1,4-oxazepane] | 122 nM | 549 nM | 169 nM
16 | CC(C)n1nc(-c2cccc(OC(F)(F)F)c2)cc1[C@H]1[C@@H]2C[C@H](N3CCCOCC3)C[C@@H]21 [Compound 189*, 4-((1R,3r,5S,6r)-6-(1-isopropyl-3-(3-(trifluoromethoxy)phenyl)-1H-pyrazol-5-yl)bicyclo[3.1.0]hexan-3-yl)-1,4-oxazepane] | 3.43 nM | 3.32 nM | 9.14 nM
17 | CC(C)n1nc(-c2cccc(OC(F)(F)F)c2)cc1[C@H]1[C@@H]2C[C@@H](N3CCCOCC3)C[C@@H]21 [Compound 190*, 4-((1R,3s,5S,6r)-6-(1-isopropyl-3-(3-(trifluoromethoxy)phenyl)-1H-pyrazol-5-yl)bicyclo[3.1.0]hexan-3-yl)-1,4-oxazepane] | 10.9 nM | 25.1 nM | 9.63 nM
18 | CC(C)n1nc(-c2cccc(C#N)c2)cc1[C@H]1[C@@H]2C[C@H](N3CCCOCC3)C[C@@H]21 [Compound 191*, 3-(5-((1R,3r,5S,6r)-3-(1,4-Oxazepan-4-yl)bicyclo[3.1.0]hexan-6-yl)-1-isopropyl-1H-pyrazol-3-yl)benzonitrile] | 2.66 nM | 8.52 nM | 8.04 nM
19 | CC(C)n1nc(-c2cccc(C#N)c2)cc1[C@H]1[C@@H]2C[C@@H](N3CCCOCC3)C[C@@H]21 [Compound 192*, 3-(5-((1R,3s,5S,6r)-3-(1,4-oxazepan-4-yl)bicyclo[3.1.0]hexan-6-yl)-1-isopropyl-1H-pyrazol-3-yl)benzonitrile] | 22.7 nM | 61.6 nM | 12.6 nM
20 | CC(C)n1nc(-c2ccccc2F)cc1[C@H]1[C@@H]2C[C@H](N3CCCOCC3)C[C@@H]21 [Compound 193*, 4-((1R,3r,5S,6r)-6-(3-(2-Fluorophenyl)-1-isopropyl-1H-pyrazol-5-yl)bicyclo[3.1.0]hexan-3-yl)-1,4-oxazepane] | 5.41 nM | 7.12 nM | 7.29 nM
21 | CC(C)n1nc(-c2ccccc2F)cc1[C@H]1[C@@H]2C[C@@H](N3CCCOCC3)C[C@@H]21 [Compound 194*, 4-((1R,3s,5S,6r)-6-(3-(2-fluorophenyl)-1-isopropyl-1H-pyrazol-5-yl)bicyclo[3.1.0]hexan-3-yl)-1,4-oxazepane] | 42.3 nM | 131 nM | 13.1 nM
22 | CC(C)n1nc(-c2cccc(F)c2)cc1[C@H]1[C@@H]2C[C@H](N3CCCOCC3)C[C@@H]21 [Compound 195*, 4-((1R,3r,5S,6r)-6-(3-(3-Fluorophenyl)-1-isopropyl-1H-pyrazol-5-yl)bicyclo[3.1.0]hexan-3-yl)-1,4-oxazepane] | 2.42 nM | 7.49 nM | 12.7 nM
23 | CC(C)n1nc(-c2cccc(F)c2)cc1[C@H]1[C@@H]2C[C@@H](N3CCCOCC3)C[C@@H]21 [Compound 196*, 4-((1R,3s,5S,6r)-6-(3-(3-fluorophenyl)-1-isopropyl-1H-pyrazol-5-yl)bicyclo[3.1.0]hexan-3-yl)-1,4-oxazepane] | 13.3 nM | 46.2 nM | 12.7 nM
24 | CC(C)n1nc(-c2cnc(C(F)(F)F)nc2)cc1[C@H]1[C@@H]2C[C@H](N3CCOCC3)C[C@@H]21 [Compound 203, 4-((1R,3r,5S,6r)-6-(1-isopropyl-3-(2-(trifluoromethyl)pyrimidin-5-yl)-1H-pyrazol-5-yl)bicyclo[3.1.0]hexan-3-yl)morpholine] | 21.4 nM | 97.3 nM | 27.5 nM
